Experimental data taken from patent publication US6235771A, “Anilide derivative, production and use thereof” (Takeda Chemical Industries, Ltd., priority 1998, dated 2001).

These compounds were tested against T1, human CCR5 (Homo sapiens, UniProt P51681) (assay: Inhibition of [125I]-RANTES binding to human CCR5 in CHO/CCR5 cells (CCR5 antagonistic activity)). Conditions: Test Compound 1 μM, 100 pM [125I]-RANTES, room temperature, 40 minutes, read-out: Inhibition Rate (CCR5 binding).
T1 construct: expressed in transfected cells; host or cells: CHO-K1 cells, electroporated with plasmid pCKR5 (pcDNA3.1 backbone), geneticin-selected (CHO/CCR5)
Experimental: Cloning of CCR5 gene was carried out by PCR (polymerase chain reaction) from human spleen cDNA. With using 0.5 ng of spleen cDNA (Toyobo, QUICK-Clone cDNA) as template, PCR was performed in DNA Thermal Cycler 480 (Perkin-Elmer) (reaction conditions: 30 cycles of 95° C. for 1 minute, 60° C. for 1 minute, and 75° C. for 5 minutes) by adding primer set, 5'-[…]-3' (25 pmol) and 5'-[…]-3' (25 pmol), which were designed referring to nucleotide sequence of CCR5 gene reported by Samson et al. (Biochemistry, 35(11), 3362-3367 (1996)) and by using TaKaRa EX Taq (TakaraShuzo). The resultant PCR product was subjected to agarose gel. electrophoresis to collect about 1.0 kb DNA fragment, which was subjected to Original TA Cloning Kit (Funakoshi) to carry out cloning of CCR5 gene.
The plasmid obtained in the above (1) was digested with restriction enzymes XbaI (Takara Shuzo) and BamHI (Takara Shuzo) and subjected to agarose gel electrophoresis to collect about 1.0 kb DNA fragment. The DNA fragment was mixed with plasmid pcDNA3.1 (Funakoshi) for expression in animal cells, said plasmid being digested with XbaI and BamHI, and they were ligated with DNA Ligation Kit Ver.2 (Takara Shuzo). The resulting plasmid was subjected to transformation of competent cell of E. coli JM109 (Takara Shuzo) to obtain plasmid pCKR5.
CHO-K1 cells were grown in 750 ml of tissue culture flask (Becton Dickinson) using Ham's F12 medium (Nihon Pharmaceutical) containing 10% fetal calf serum (Life Tech Oriental) and took off with 0.5 g/L trypsin-0.2 g/L EDTA (Life Tech Oriental). The cells were washed with PBS (Life Tech Oriental), centrifuged (1000 rpm, 5 minutes), and suspended in PBS. With using Gene Pulser (Bio-Rad Laboratories), DNA was introduced into the cells under the conditions shown below. That is, to the cuvette of 0.4 cm gap were added 8×10^6 cells and 10 μg of plasmid pCKR5 for expression of human CCR5, and electroporation was carried out under 0.25 kV of voltage and 960 μF of capacitance. The cells were transferred into Ham's F12 medium (Nihon Pharmaceutical) containing 10% fetal calf serum, and cultivated for 24 hours. The cells were again took off and centrifuged, and suspended in Ham's F12 medium (Nihon Pharmaceutical) containing 10% fetal calf serum and 500 μg/ml of geneticin (Life Tech Oriental). The suspension was diluted to give 10^4 cells/ml of the suspension, which was inoculated on 96 well plate (Becton Dickinson) to give geneticin resistant cells. The resulting geneticin resistant cells were cultivated in 96 well plate (Becton Dickinson), and cells expressing CCR5 were selected from the geneticin resistant cells. That is, in assay buffer (Ham's F12 medium containing 0.5% BSA and 20 mM HEPES (Wako Pure Chemical, pH7.2) to which was added 200 pM of [^125 I]-RANTES (Amersham) as ligand, binding reaction was carried out at room temperature for 40 minutes, and the buffer was washed with cooled PBS. To the buffer was added 50 μl/well of 1M NaOH, and the mixture was stirred. Radioactivity was determined with γ-counter to select CHO/CCR5 cells which specifically bind to the ligand.
The CHO/CCR5 were inoculated on 96 well microplate (5×10^4 cells/well) and cultivated for 24 hours. The medium was removed by means of suction, and to each well was added assay buffer containing Test Compound (1 μM) and then 100 pM of [^125 I]-RANTES (Amersham) as ligand. Binding assay was carried out at room temperature for 40 minutes, and assay buffer was removed by means of suction. Each well was washed twice with cooled PBS, and 200 μl of Microscint-20 (Packard Instrument, Inc.) was added to each well. Radio-activity was determined with Top-Count Micro Scintillation Counter (Packard Instrument, Inc.).
According to the method described above, inhibition rate of Test Compound (whose number is referred to in the following Examples) to CCR5 binding.

T1 sequence (P51681 whole entry): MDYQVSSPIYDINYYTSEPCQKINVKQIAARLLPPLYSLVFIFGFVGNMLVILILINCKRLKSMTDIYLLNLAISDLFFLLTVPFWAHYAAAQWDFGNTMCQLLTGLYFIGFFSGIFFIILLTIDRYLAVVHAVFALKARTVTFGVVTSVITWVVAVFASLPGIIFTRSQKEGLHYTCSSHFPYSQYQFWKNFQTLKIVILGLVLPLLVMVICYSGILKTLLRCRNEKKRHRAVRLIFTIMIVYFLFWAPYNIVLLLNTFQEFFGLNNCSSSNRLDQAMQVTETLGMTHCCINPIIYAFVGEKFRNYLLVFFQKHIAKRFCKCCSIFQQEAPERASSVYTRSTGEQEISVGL

SMILES | inhibition at 1 µM [%]
CCOc1ccc(-c2ccc3c(c2)C=C(C(=O)Nc2ccc(CN(C)C4CCOCC4)cc2)CCS3(=O)=O)cc1 [Compound 4, 7-(4-ethoxyphenyl)-N-[4-[N-methyl-N-(tetrahydropyran-4-yl)aminomethyl]phenyl]-1,1-dioxo-2,3-dihydro-1-benzothiepine-4-carboxamide] | 91
CCCc1ccc(-c2ccc3c(c2)C=C(C(=O)Nc2ccc(CN(C)C4CCOCC4)cc2)CCS3(=O)=O)cc1 [Compound 27, N-[4-[N-methyl-N-(tetrahydropyran-4-yl)aminomethyl]phenyl]-7-(4-propylphenyl)-1,1-dioxo-2,3-dihydro-1-benzothiepine-4-carboxamide] | 100
CCCOc1ccc(-c2ccc3c(c2)C=C(C(=O)Nc2ccc(CN(C)C4CCOCC4)cc2)CCS3(=O)=O)cc1 [Compound 29, N-[4-[N-methyl-N-(tetrahydropyran-4-yl)aminomethyl]phenyl]-7-(4-propoxyphenyl)-1,1-dioxo-2,3-dihydro-1-benzothiepine-4-carboxamide] | 100
CCCCOc1ccc(-c2ccc3c(c2)C=C(C(=O)Nc2ccc(CN(C)C4CCOCC4)cc2)CCS3(=O)=O)cc1 [Compound 30, 7-(4-butoxyphenyl)-N-[4-[N-methyl-N-(tetrahydropyran-4-yl)aminomethyl]phenyl]-1,1-dioxo-2,3-dihydro-1-benzothiepine-4-carboxamide] | 99
CCSc1ccc(-c2ccc3c(c2)C=C(C(=O)Nc2ccc(CN(C)C4CCOCC4)cc2)CCS3(=O)=O)cc1 [Compound 44, 7-[(4-ethylthio)phenyl]-N-[4-[N-methyl-N-(tetrahydropyran-4-yl)aminomethyl]phenyl]-1,1-dioxo-2,3-dihydro-1-benzothiepine-4-carboxamide] | 96
CCN(CC)c1ccc(-c2ccc3c(c2)C=C(C(=O)Nc2ccc(CN(C)C4CCOCC4)cc2)CCS3(=O)=O)cc1 [Compound 54, 7-(4-diethylaminophenyl)-N-[4-[[N-methyl-N-(tetrahydropyran-4-yl)amino]methyl]phenyl]-1,1-dioxo-2,3-dihydro-1-benzothiepine-4-carboxamide] | 99
CCCOCCOc1ccc(-c2ccc3c(c2)C=C(C(=O)Nc2ccc(CN(C)C4CCOCC4)cc2)CCS3(=O)=O)cc1OCC [Compound 73, 7-[3-ethoxy-4-(2-propoxyethoxy)phenyl]-N-[4-[[N-methyl-N-(tetrahydropyran-4-yl)amino]methyl]phenyl]-1,1-dioxo-2,3-dihydro-1-benzothiepine-4-carboxamide] | 94
CCCOCCOc1ccc(-c2ccc3c(c2)C=C(C(=O)Nc2ccc(CN(C)C4CCOCC4)cc2)CCS3(=O)=O)cc1Cl [Compound 74, 7-[3-chloro-4-(2-propoxyethoxy)phenyl]-N-[4-[[N-methyl-N-(tetrahydropyran-4-yl)amino]methyl]phenyl]-1,1-dioxo-2,3-dihydro-1-benzothiepine-4-carboxamide] | 94
CCCOCCOc1ccc(-c2ccc3c(c2)C=C(C(=O)Nc2ccc(CN(C)C4CCOCC4)cc2)CCS3(=O)=O)cc1C [Compound 75, 7-[3-methyl-4-(2-propoxyethoxy)phenyl]-N-[4-[[N-methyl-N-(tetrahydropyran-4-yl)amino]methyl]phenyl]-1,1-dioxo-2,3-dihydro-1-benzothiepine-4-carboxamide] | 95
CCOCCOc1ccc(-c2ccc3c(c2)C=C(C(=O)Nc2ccc(CN(C)C4CCOCC4)cc2)CCS3(=O)=O)cc1 [Compound 84, 7-[4-(2-ethoxyethoxy)phenyl]-N-[4-[[N-methyl-N-(tetrahydropyran-4-yl)amino]methyl]phenyl]-1,1-dioxo-2,3-dihydro-1-benzothiepine-4-carboxamide] | 97
CCCOCCOc1ccc(-c2ccc3c(c2)C=C(C(=O)Nc2ccc(CN(C)C4CCOCC4)cc2)CCS3(=O)=O)cc1 [Compound 97, N-[4-[[N-methyl-N-(tetrahydropyran-4-yl)amino]methyl]phenyl]-7-[4-(2-propoxyethoxy)phenyl]-1,1-dioxo-2,3-dihydro-1-benzothiepine-4-carboxamide] | 92
CC(C)OCCOc1ccc(-c2ccc3c(c2)C=C(C(=O)Nc2ccc(CN(C)C4CCOCC4)cc2)CCS3(=O)=O)cc1 [Compound 111, 7-[4-(2-isopropoxyethoxy)phenyl]-N-[4-[[N-methyl-N-(tetrahydropyran-4-yl)amino]methyl]phenyl]-1,1-dioxo-2,3-dihydro-1-benzothiepine-4-carboxamide] | 95
CCOCCCc1ccc(-c2ccc3c(c2)C=C(C(=O)Nc2ccc(CN(C)C4CCOCC4)cc2)CCS3(=O)=O)cc1 [Compound 123, 7-[4-(3-ethoxypropyl)phenyl]-N-[4-[[N-methyl-N-(tetrahydro-2H-pyran-4-yl)amino]methyl]phenyl]-1,1-dioxo-2,3-dihydro-1-benzothiepine-4-carboxamide] | 94
CCOCCOc1c(C)cc(-c2ccc3c(c2)C=C(C(=O)Nc2ccc(CN(C)C4CCOCC4)cc2)CCS3(=O)=O)cc1C [Compound 124, 7-[4-(2-ethoxyethoxy)-3,5-dimethylphenyl]-N-[4-[[N-methyl-N-(tetrahydro-2H-pyran-4-yl)amino]methyl]phenyl]-1,1-dioxo-2,3-dihydro-1-benzothiepine-4-carboxamide] | 97
CCCOc1ccc(-c2ccc3c(c2)C=C(C(=O)Nc2ccc(CN(C)C4CCOCC4)cc2)CCS3(=O)=O)cc1OCC [Compound 125, 7-(3-ethoxy-4-propoxyphenyl)-N-[4-[[N-methyl-N-(tetrahydro-2H-pyran-4-yl)amino]methyl]phenyl]-1,1-dioxo-2,3-dihydro-1-benzothiepine-4-carboxamide] | 92
CCOCCOc1ccc(-c2ccc3c(c2)C=C(C(=O)Nc2ccc(CN(C)C4CCOCC4)cc2)CCS3(=O)=O)cc1C [Compound 129, 7-[4-(2-ethoxyethoxy)-3-methyl-phenyl]-N-[4-[[N-methyl-N-(tetrahydropyran-4-yl)amino]methyl]phenyl]-1,1-dioxo-2,3-dihydro-1-benzothiepine-4-carboxamide] | 95

These compounds were tested on HIV-1 BA-L (assay: Inhibitory effect on HIV-1 infection to MAGI-CCR5 cell (β-galactosidase activity)). Conditions: 100 μl of medium containing 1.6 μM Test Compound plus 100 μl of medium containing 300PFU HIV-1 BA-L; MAGI-CCR5 cells; 37° C., 2 days.
Type: cell-based
Experimental: The plasmid where β-galactosidase gene was ligated downstream of HIV-1 LTR was introduced into CD4 positive HeLa cell, to which human CCR5 was further introduced to obtain transformant MAGI-CCR5. By using said transformant MAGI-CCR5, degree of HIV-1 infection was calculated from β-galactosidase activity (blue color due to decomposition of 5-bromo-4-chloro-3-indolyl-β-D-galactopyranoside). Specifically, MAGI-CCR5 cells were suspended in DMEM medium containing 10% serum to prepare 5×10^4 cells/ml suspension. To each well of 96 well plate was inoculated 200 μl of the suspension, and the cells were cultivated at 37° C. overnight. The medium was removed by means of suction, and to the residue was added 100 μl of the above medium containing 1.6 μM of Test Compound and 100 μl of the above medium containing 300PFU of HIV-1 BA-L cells. The cells were cultivated at 37° C. for 2 days. The medium was removed by means of suction. To the residue was added 200 μl of cell fixative (PBS containing 1% formaldehyde and 0.2% glutaraldehyde), and the mixture was allowed to stand at room temperature for 5 minutes and washed twice with PBS. To the mixture was added 100 μl of staining solution (PBS containing […] and 0.4 mg/ml X-gal), and the mixture was allowed to stand at 37° C. for 50 minutes and washed twice with PBS. The number of blue cells was counted by microscope and defined as the number of cells infected with HIV-1. According to this method, inhibition rate on HIV-1 infection was determined.

SMILES | Inhibition Rate (HIV-1 infection) [%]
CCCOc1ccc(-c2ccc3c(c2)C=C(C(=O)Nc2ccc(CN(C)C4CCOCC4)cc2)CCS3(=O)=O)cc1 [Compound 29, N-[4-[N-methyl-N-(tetrahydropyran-4-yl)aminomethyl]phenyl]-7-(4-propoxyphenyl)-1,1-dioxo-2,3-dihydro-1-benzothiepine-4-carboxamide] | 91
CCCCOc1ccc(-c2ccc3c(c2)C=C(C(=O)Nc2ccc(CN(C)C4CCOCC4)cc2)CCS3(=O)=O)cc1 [Compound 30, 7-(4-butoxyphenyl)-N-[4-[N-methyl-N-(tetrahydropyran-4-yl)aminomethyl]phenyl]-1,1-dioxo-2,3-dihydro-1-benzothiepine-4-carboxamide] | 91
CCCOCCOc1ccc(-c2ccc3c(c2)C=C(C(=O)Nc2ccc(CN(C)C4CCOCC4)cc2)CCS3(=O)=O)cc1 [Compound 97, N-[4-[[N-methyl-N-(tetrahydropyran-4-yl)amino]methyl]phenyl]-7-[4-(2-propoxyethoxy)phenyl]-1,1-dioxo-2,3-dihydro-1-benzothiepine-4-carboxamide] | 87
